Data as given in publication PMC11478212, “Antitumoral and Antiproliferative Potential of Synthetic Derivatives of Scorpion Peptide IsCT1 in an Oral Cavity Squamous Carcinoma Model” (Molecules, 2024).

Tests used:
SCC-25 tumor cells = assay: Cell cycle phase and DNA fragmentation analysis (flow cytometry); format: cell-based; details: 24 h, IsCT-P and AC-AFPK-IsCT1 at IC50, others 100 µM
Procedure: Figure 3 Analysis of cell cycle phases following a 24 h treatment with synthetic analogs of IsCT1 peptides. The indicated cells were treated at the IC50 values obtained for the IsCT-P and AC-AFPK-IsCT1 peptides and at a concentration of 100 µM for the other peptides. (a) Representative histograms of cell distribution across cell cycle phases; (b) bar graph showing the correlation of the effect on cell cycle and fragmented DNA, expressed as the mean ± SD of three independent SCC-9 tumor cell experiments; (c) bar graph showing the correlation of the effect on cell cycle and fragmented DNA, expressed as the mean ± SD of three independent experiments on SCC-25 tumor cells; (d) bar graph showing the correlation of the effect on cell cycle and fragmented DNA, expressed as the mean ± SD of three independent experiments of normal FN1 cells; (e) bar graph showing the correlation of the effect on cell cycle and fragmented DNA, expressed as the mean ± SD of three independent experiments of normal J774 cells. Statistical differences were obtained using ANOVA and Tukey–Kramer multiple comparison tests. * p < 0.05, ** p < 0.01, and *** p < 0.001 denote significance. ns = not significant.
Tumor (SSC-9 and SSC-25) and normal cells (FN1 and J-774) were subjected to treatment for 24 h at the peptides’ IC50 concentrations. Treated and control cells were trypsinized and centrifuged at 1200 rpm for 5 min. The resulting pellet was resuspended in 1 mL of cold buffer, followed by the addition of 3 mL of absolute ethanol. Samples were stored at −20 °C for 24 h. The samples were then centrifuged at 1500 rpm for 10 min and resuspended in 200 μL of FACS buffer containing 0.1% Triton X-100 (Sigma-Aldrich, St. Louis, MO, USA), 50 μg/mL propidium iodide (Sigma-Aldrich), and 1 µL of RNAse (200×). This mixture was kept at room temperature and protected from light for 30 min. The samples were then transferred to cytometry tubes and analyzed using a FACScanto flow cytometer (BD) with 10,000 events, and histograms were acquired and analyzed using ModFit LT 5.0 software.

normal FN1 cells [1] = assay: Mitochondrial membrane electrical potential (ΔΨm) by flow cytometry; format: cell-based, human; details: 24 h, IsCT-P and AC-AFPK-IsCT1 at IC50, others 100 µM, MitoRed, compared to control cells, mean ± SD of three independent experiments
Procedure: Figure 4 Analysis of mitochondrial electrical potential (ΔΨm) using flow cytometry following a 24 h treatment with synthetic analogs of IsCT1 peptides. The indicated cells were treated at the IC50 values obtained for the IsCT-P and AC-AFPK-IsCT1 peptides and at a concentration of 100 µM for the other peptides. (a) Representative histograms of cell distribution according to ΔΨm; (b) bar graph showing ΔΨm expressed as the mean ± SD of three independent experiments of SCC-9 tumor cells; (c) bar graph showing ΔΨm expressed as the mean ± SD of three independent experiments of SCC-25 tumor cells; (d) bar graph showing ΔΨm expressed as the mean ± SD of three independent experiments of normal FN1 cells; (e) bar graph showing ΔΨm expressed as the mean ± SD of three independent experiments of normal J774 cells. Statistical differences were obtained using ANOVA and Tukey–Kramer multiple comparison tests. * p < 0.05, ** p < 0.01, and *** p < 0.001 denote significance. ns = not significant.
Tumor (SSC-9 and SSC-25) and normal cells (FN1 and J-774) were subjected to treatment for a period of 24 h at the peptides’ IC50 concentrations. After treatment, the cells were trypsinized, centrifuged at 1200 rpm for 5 min, the supernatant was discarded, and the cells were resuspended in complete medium containing MitoRed™ (Sigma-Aldrich, USA) (200 nM/L). […]

normal FN1 cells [2] = assay: CFSE-DA proliferation assay (flow cytometry); format: cell-based, human; details: 24 h, IsCT-P and AC-AFPK-IsCT1 at IC50, other peptides at 100 µM, mean ± SD of three independent experiments
Procedure: Figure 2 Assessment of the cellular proliferative index was conducted using flow cytometry following a 24 h treatment with synthetic analogs of the IsCT1 peptide. The treatments were performed using the IC50 values obtained for the IsCT-P and AC-AFPK-IsCT1 peptides and at a concentration of 100 µM for the other peptides. (a) Representative histograms of the proliferative index were analyzed using WinMDI 5.0 software. Each color in the histogram represents a new cell population. (b) Bar graphs represent the mean ± SD of the proliferative index for SCC-9 tumor cells derived from three independent experiments. (c) Bar graphs display the mean ± SD of the proliferative index for SCC-25 tumor cells based on three independent experiments. (d) Bar graphs represent the mean ± SD of the proliferative index for normal FN1 cells from three independent experiments. […] Statistical differences were determined using ANOVA and Tukey–Kramer multiple comparison tests. […]
Tumor (SSC-9 and SSC-25) and normal cells (FN1 and J-774) were plated in 24-well plates at a density of 10^5 cells/mL for 24 h. […] Readings were performed on a FACScanto flow cytometer (BD, Franklin Lakes, NJ, USA) with the number of events set to 10,000 events, and histograms were acquired and analyzed using ModFit LT 5.0 software.

| Substance | fragmented DNA (SCC-25 tumor cells) [%] | decrease in ΔΨm (normal FN1 cells [1]) | reduction in the proliferative index (normal FN1 cells [2]) [%] |
| --- | --- | --- | --- |
| Ac-ALGKFWPKIKSLF-NH2 [AC-AFPK-IsCT1] | 16.5 | No changes |  |
| H-ILKKIWKPIKKLF-NH2 [IsCT-P] | 32.4 |  | 37.6 ± 3.9 |
